ChEMBL document CHEMBL4627395, “Cytotoxic Heptaketides from the Endolichenic Fungus Ulospora bilgramii” (J Nat Prod, 2020)
Counter-ions that a name gives are not always drawn. Values belong to the compound of their own block, whether it stands above or below them. Active and inactive are the calls of the source. No cut-off for these calls is given here.

How the values were obtained:
[1] = test system: MCF7; assay: Cytotoxicity against human MCF7 cells incubated for 48 hrs by MTT assay; format: functional, cell-based; conditions: MCF7, 48 h
[2] = test system: A549; assay: Cytotoxicity against human A549 cells incubated for 48 hrs by MTT assay; format: functional, cell-based; conditions: A549, 48 h
[3] = test system: KB; assay: Cytotoxicity against human KB cells incubated for 48 hrs by MTT assay; format: functional, cell-based
[4] = test system: A549; assay: Induction of apoptosis in human A549 cells assessed as late apoptotic cells at 1.25 uM after 24 hrs by Annexin-V-FITC/propidium iodide staining based flow cytometric method (reference value: 1.40%); format: functional
[5] = test system: A549; assay: Induction of cell cycle arrest in human A549 cells assessed as accumulation at S phase at 5 uM incubated for 24 hrs by flow cytometry (reference value: 33.65%); format: functional
[6] = test system: A549; assay: Induction of cell cycle arrest in human A549 cells assessed as accumulation at G0/G1 phase at 5 uM incubated for 24 hrs by flow cytometry (reference value: 55.79%); format: functional
[7] = test system: A549; assay: Induction of apoptosis in human A549 cells assessed as late apoptotic cells at 5 uM after 24 hrs by Annexin-V-FITC/propidium iodide staining based flow cytometric method (reference value: 1.40%); format: functional
[8] = test system: A549; assay: Induction of cell cycle arrest in human A549 cells assessed as accumulation at G0/G1 phase at 13.6 uM incubated for 24 hrs by flow cytometry (reference value: 55.79%); format: functional
[9] = molecular target: DNA topoisomerase 2-alpha (Homo sapiens) (UniProt P11388); assay: Inhibition of human topoisomerase-2alpha expressed in baculovirus infected insect cells assessed as reduction in pBR322 DNA relaxation measured after 30 mins by ethidium bromide staining based agarose gel electrophoresis method relative to control
[10] = test system: A549; assay: Induction of apoptosis in human A549 cells assessed as necrotic cells at 1.25 uM after 24 hrs by Annexin-V-FITC/propidium iodide staining based flow cytometric method (reference value: 1.12%); format: functional
[11] = test system: A549; assay: Induction of ROS generation in human A549 cells incubated for 24 hrs by DCFH-DA staining-based flow cytometric analysis relative to control; format: functional, cell-based
[12] = test system: A549; assay: Induction of ROS generation in human A549 cells assessed as increase in fluorescence intensity at 5 uM incubated for 24 hrs by DCFH-DA staining-based flow cytometric analysis relative to control; format: functional
[13] = test system: A549; assay: Induction of cell cycle arrest in human A549 cells assessed as accumulation at S phase at 1.25 uM incubated for 24 hrs by flow cytometry (reference value: 33.65%); format: functional
[14] = test system: A549; assay: Induction of apoptosis in human A549 cells assessed as necrotic cells at 13.6 uM after 24 hrs by Annexin-V-FITC/propidium iodide staining based flow cytometric method (reference value: 1.12%); format: functional
[15] = test system: A549; assay: Induction of apoptosis in human A549 cells assessed as late apoptotic cells at 13.6 uM after 24 hrs by Annexin-V-FITC/propidium iodide staining based flow cytometric method (reference value: 1.40%); format: functional
[16] = test system: A549; assay: Induction of apoptosis in human A549 cells assessed as early apoptotic cells at 1.25 uM after 24 hrs by Annexin-V-FITC/propidium iodide staining based flow cytometric method (reference value: 0.56%); format: functional
[17] = test system: A549; assay: Induction of apoptosis in human A549 cells after 24 hrs by Annexin-V-FITC/propidium iodide staining based flow cytometric method; format: functional, cell-based
[18] = test system: A549; assay: induction of morphological changes in human A549 cells assessed as cell shrinkage at 1.25 to 5 uM incubated for 24 hrs by DAPI-staining based microscopic method; format: functional
[19] = test system: A549; assay: induction of morphological changes in human A549 cells assessed as appearance of apoptotic bodies at 1.25 to 5 uM incubated for 24 hrs by DAPI-staining based microscopic method; format: functional, cell-based
[20] = test system: A549; assay: Induction of cell cycle arrest in human A549 cells assessed as accumulation at G2/M phase at 1.25 uM incubated for 24 hrs by flow cytometry (reference value: 10.38%); format: functional
[21] = test system: A549; assay: Induction of cell cycle arrest in human A549 cells assessed as accumulation at G0/G1 phase at 1.25 uM incubated for 24 hrs by flow cytometry (reference value: 55.79%); format: functional
[22] = test system: A549; assay: Induction of apoptosis in human A549 cells assessed as necrotic cells at 5 uM after 24 hrs by Annexin-V-FITC/propidium iodide staining based flow cytometric method (reference value: 1.12%); format: functional
[23] = test system: A549; assay: Induction of apoptosis in human A549 cells assessed as early apoptotic cells at 5 uM after 24 hrs by Annexin-V-FITC/propidium iodide staining based flow cytometric method (reference value: 0.56%); format: functional
[24] = test system: A549; assay: Induction of apoptosis in human A549 cells assessed as late apoptotic cells at 2.5 uM after 24 hrs by Annexin-V-FITC/propidium iodide staining based flow cytometric method (reference value: 1.40%); format: functional
[25] = test system: A549; assay: Induction of cell cycle arrest in human A549 cells assessed as accumulation at S phase at 2.5 uM incubated for 24 hrs by flow cytometry (reference value: 33.65%); format: functional
[26] = test system: A549; assay: Induction of cell cycle arrest in human A549 cells assessed as accumulation at S phase at 13.6 uM incubated for 24 hrs by flow cytometry (reference value: 33.65%); format: functional
[27] = test system: A549; assay: Induction of cell cycle arrest in human A549 cells assessed as accumulation at G2/M phase at 13.6 uM incubated for 24 hrs by flow cytometry (reference value: 10.38%); format: functional
[28] = test system: A549; assay: Induction of DNA damage in human A549 cells assessed as gammaH2AX accumulation incubated for 24 hrs by DAPI staining based Immunofluorescence method; format: functional, cell-based
[29] = test system: A549; assay: Induction of cell cycle arrest in human A549 cells assessed as accumulation at G2/M phase at 5 uM incubated for 24 hrs by flow cytometry (reference value: 10.38%); format: functional
[30] = test system: A549; assay: Induction of apoptosis in human A549 cells assessed as early apoptotic cells at 2.5 uM after 24 hrs by Annexin-V-FITC/propidium iodide staining based flow cytometric method (reference value: 0.56%); format: functional
[31] = test system: A549; assay: Induction of cell cycle arrest in human A549 cells assessed as accumulation at G0/G1 phase at 2.5 uM incubated for 24 hrs by flow cytometry (reference value: 55.79%); format: functional
[32] = test system: A549; assay: Induction of cell cycle arrest in human A549 cells assessed as accumulation at G0/G1 phase incubated for 24 hrs by flow cytometry; format: functional, cell-based
[33] = test system: A549; assay: Induction of apoptosis in human A549 cells assessed as early apoptotic cells at 13.6 uM after 24 hrs by Annexin-V-FITC/propidium iodide staining based flow cytometric method (reference value: 0.56%); format: functional
[34] = test system: A549; assay: Induction of apoptosis in human A549 cells assessed as necrotic cells at 2.5 uM after 24 hrs by Annexin-V-FITC/propidium iodide staining based flow cytometric method (reference value: 1.12%); format: functional
[35] = test system: A549; assay: Induction of cell cycle arrest in human A549 cells assessed as accumulation at G2/M phase at 2.5 uM incubated for 24 hrs by flow cytometry (reference value: 10.38%); format: functional

Chain of DNA topoisomerase 2-alpha (Homo sapiens) (P11388 whole entry): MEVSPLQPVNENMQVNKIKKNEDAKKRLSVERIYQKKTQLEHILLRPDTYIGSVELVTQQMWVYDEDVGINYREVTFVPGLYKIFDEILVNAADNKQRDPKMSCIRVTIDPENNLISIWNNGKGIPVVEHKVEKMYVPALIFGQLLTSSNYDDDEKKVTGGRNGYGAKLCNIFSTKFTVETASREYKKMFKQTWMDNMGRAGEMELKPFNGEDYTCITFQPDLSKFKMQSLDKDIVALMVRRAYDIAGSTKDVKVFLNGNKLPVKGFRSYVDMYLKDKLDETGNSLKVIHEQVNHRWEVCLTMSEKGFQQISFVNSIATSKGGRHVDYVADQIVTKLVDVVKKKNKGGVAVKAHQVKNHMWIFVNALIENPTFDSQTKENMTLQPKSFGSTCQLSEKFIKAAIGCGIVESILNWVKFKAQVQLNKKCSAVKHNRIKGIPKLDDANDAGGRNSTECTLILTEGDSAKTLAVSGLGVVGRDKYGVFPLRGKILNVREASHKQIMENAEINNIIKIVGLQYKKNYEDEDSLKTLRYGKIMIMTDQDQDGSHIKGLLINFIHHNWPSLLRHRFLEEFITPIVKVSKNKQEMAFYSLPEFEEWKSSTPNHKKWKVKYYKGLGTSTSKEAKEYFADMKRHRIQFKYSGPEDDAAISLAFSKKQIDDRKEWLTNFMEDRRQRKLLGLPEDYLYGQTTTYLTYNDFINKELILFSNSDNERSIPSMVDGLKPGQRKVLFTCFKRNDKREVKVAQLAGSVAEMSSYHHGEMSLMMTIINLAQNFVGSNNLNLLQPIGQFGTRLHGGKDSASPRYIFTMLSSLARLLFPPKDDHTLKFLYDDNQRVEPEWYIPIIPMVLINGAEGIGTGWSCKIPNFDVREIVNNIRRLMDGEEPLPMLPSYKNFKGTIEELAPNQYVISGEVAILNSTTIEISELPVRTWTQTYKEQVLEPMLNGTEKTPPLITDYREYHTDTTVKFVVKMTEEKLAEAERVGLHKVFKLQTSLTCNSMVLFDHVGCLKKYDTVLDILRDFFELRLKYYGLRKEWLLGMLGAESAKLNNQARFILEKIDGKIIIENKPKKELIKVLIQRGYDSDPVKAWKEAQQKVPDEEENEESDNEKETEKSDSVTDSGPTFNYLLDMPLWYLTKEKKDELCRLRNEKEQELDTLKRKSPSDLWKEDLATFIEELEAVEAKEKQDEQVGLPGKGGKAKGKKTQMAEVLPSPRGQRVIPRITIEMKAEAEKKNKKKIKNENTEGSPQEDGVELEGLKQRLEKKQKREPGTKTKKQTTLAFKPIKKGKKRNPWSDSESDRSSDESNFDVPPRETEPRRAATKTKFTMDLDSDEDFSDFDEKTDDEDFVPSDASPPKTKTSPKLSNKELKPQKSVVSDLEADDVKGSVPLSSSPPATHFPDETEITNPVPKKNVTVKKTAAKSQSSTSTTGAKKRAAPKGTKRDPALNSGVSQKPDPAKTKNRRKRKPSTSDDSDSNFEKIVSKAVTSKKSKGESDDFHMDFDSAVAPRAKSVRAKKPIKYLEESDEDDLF

Structure (SMILES): COc1cc(O)c2c(c1)C(=O)C1=C(C2=O)C(O)OC(C)=C1 (configuration not stated) [ASCOMYCONE B]
IC50 [1]: > 40 µM
IC50 [2]: > 40 µM
IC50 [3]: > 40 µM

inhibition [9]: Active
Structure (SMILES): COc1cc(O)c2c(c1)C(=O)C1=C(C2=O)[C@H](OC[C@@H]2C(=O)CC[C@H]2C)OC(C)=C1
Activity [4]: 1.14%
Activity [5]: 29.74%
Activity [6]: 69.15%
Activity [7]: 10.75%
Activity [8]: 30.93%
Activity [10]: 0.73%
Activity [11]: Dose-dependent effect
fold change (FC) [12]: 5
Activity [13]: 33.31%
Activity [14]: 2.15%
Activity [15]: 5.02%
Activity [16]: 0.98%
Activity [17]: Dose-dependent effect
Activity [18]: Active
IC50 [1]: 1.3 µM
Activity [19]: Active
Activity [20]: 7.18%
Activity [21]: 59.51%
Activity [22]: 7.75%
Activity [23]: 1.8%
Activity [24]: 2.69%
Activity [25]: 30.07%
Activity [26]: 24.26%
IC50 [2]: 1.3 µM
Activity [27]: 44.81%
Activity [28]: Dose-dependent effect
Activity [29]: 1.11%
Activity [30]: 0.87%
Activity [31]: 66.37%
IC50 [3]: 3 µM
Activity [32]: Dose-dependent effect
Activity [33]: 6.79%
Activity [34]: 1.3%
Activity [35]: 3.56%

Structure (SMILES): COc1cc(O)c2c(c1)[C@H](O)[C@@H]1C[C@H](C)OC[C@H]1C2=O
IC50 [1]: > 40 µM
IC50 [2]: > 40 µM
IC50 [3]: > 40 µM

Structure (SMILES): COc1cccc2c1C(=O)c1c(O)c3c(c(O)c1C2=O)C[C@@](O)(C(=O)CO)C[C@@H]3O[C@H]1C[C@H](N)[C@H](O)[C@H](C)O1 [DOXORUBICIN HYDROCHLORIDE]
IC50 [1]: 2.5 µM
IC50 [2]: 5 µM
IC50 [3]: 2.2 µM

Structure (SMILES): COc1cc(O)c2c(c1)C(=O)C1=C(C2=O)C(OC)OC(C)=C1 (configuration not stated) [ASCOMYCONE A]
IC50 [1]: > 40 µM
IC50 [2]: > 40 µM
IC50 [3]: > 40 µM

Structure (SMILES): COc1cc(O)c2c(c1)C(=O)C1=C(COC(C)=C1)C2=O
IC50 [1]: > 40 µM
IC50 [2]: > 40 µM
IC50 [3]: > 40 µM

inhibition [9]: Active
Structure (SMILES): COc1cc(O)c2c(c1)C(=O)C1=C(C2=O)[C@H](OC[C@@H]2C(=O)CC[C@@H]2C)OC(C)=C1
Activity [4]: 1.14%
Activity [5]: 29.74%
Activity [6]: 69.15%
Activity [7]: 10.75%
Activity [8]: 30.93%
Activity [10]: 0.73%
Activity [11]: Dose-dependent effect
fold change (FC) [12]: 5
Activity [13]: 33.31%
Activity [14]: 2.15%
Activity [15]: 5.02%
Activity [16]: 0.98%
Activity [17]: Dose-dependent effect
Activity [18]: Active
IC50 [1]: 1.3 µM
Activity [19]: Active
Activity [20]: 7.18%
Activity [21]: 59.51%
Activity [22]: 7.75%
Activity [23]: 1.8%
Activity [24]: 2.69%
Activity [25]: 30.07%
Activity [26]: 24.26%
IC50 [2]: 1.3 µM
Activity [27]: 44.81%
Activity [28]: Dose-dependent effect
Activity [29]: 1.11%
Activity [30]: 0.87%
Activity [31]: 66.37%
IC50 [3]: 3 µM
Activity [32]: Dose-dependent effect
Activity [33]: 6.79%
Activity [34]: 1.3%
Activity [35]: 3.56%

Structure (SMILES): COc1cc(C)cc(O)c1
IC50 [1]: > 40 µM
IC50 [2]: > 40 µM
IC50 [3]: > 40 µM

Structure (SMILES): COc1cc(O)c2c(c1)[C@H](O)[C@H](C)CC2=O
IC50 [1]: > 40 µM
IC50 [2]: > 40 µM
IC50 [3]: > 40 µM

Structure (SMILES): COc1cc(O)c2c(c1)[C@@H](O)[C@@H]1C[C@H](C)OC[C@H]1C2=O
IC50 [1]: > 40 µM
IC50 [2]: > 40 µM
IC50 [3]: > 40 µM

Structure (SMILES): COc1cc(O)c2c(c1)C(=O)C(CC(C)=O)=C(C)C2=O
IC50 [1]: > 40 µM
IC50 [2]: > 40 µM
IC50 [3]: > 40 µM
